ChEMBL document CHEMBL3826966, “A chromatography-free isolation of rohitukine from leaves of Dysoxylum binectariferum: Evaluation for in vitro cytotoxicity, Cdk inhibition and physicochemical properties” (Bioorg Med Chem Lett, 2016)
Converted amounts (≈) assume the structure as drawn.

Columns and labels:
[1] = Thermodynamic equilibrium solubility in water at 120 ug/ml by HPLC analysis; type: physicochemical; conditions: read-out: Therm_solubility
[2] = molecular target: Serine/threonine-protein kinase D1 (Homo sapiens) (UniProt Q15139); experiment: Inhibition of human PKD1 (2 to 912 residues) assessed as remaining enzyme activity at 50 uM after 30 mins by 33P-ATP filter-binding assay
[3] = molecular target: Dual specificity tyrosine-phosphorylation-regulated kinase 3 (Homo sapiens) (UniProt O43781); experiment: Inhibition of human DYRK3 (1 to 588 residues) assessed as remaining enzyme activity at 50 uM after 30 mins by 33P-ATP filter-binding assay
[4] = molecular target: CDK2/Cyclin A2 (Homo sapiens, UniProt P24941); experiment: Inhibition of human Cdk2/cyclin A using histone H1 substrate after 30 mins by 33P-ATP filter-binding assay; type: protein-complex assay
[5] = molecular target: Ephrin type-A receptor 4 (Homo sapiens) (UniProt P54764); experiment: Inhibition of human EPHA4 (580 to 986 residues) assessed as remaining enzyme activity at 50 uM after 30 mins by 33P-ATP filter-binding assay
[6] = molecular target: Homeodomain-interacting protein kinase 1 (Homo sapiens) (UniProt Q86Z02); experiment: Inhibition of human HIPK1 (158 to 555 residues) assessed as remaining enzyme activity at 50 uM after 30 mins by 33P-ATP filter-binding assay
[7] = Thermodynamic equilibrium solubility in stimulated intestinal fluid at 120 ug/ml at pH 6.8 by HPLC analysis; type: ADME; conditions: simulated intestinal fluid, read-out: Therm_solubility
[8] = molecular target: Serine/threonine-protein kinase Nek2 (Homo sapiens) (UniProt P51955); experiment: Inhibition of human NEK2a (1 to 445 residues) assessed as remaining enzyme activity at 50 uM after 30 mins by 33P-ATP filter-binding assay
[9] = molecular target: Serine/threonine-protein kinase TAO1 (Homo sapiens) (UniProt Q7L7X3); experiment: Inhibition of human TAO1 (1 to 356 residues) assessed as remaining enzyme activity at 50 uM after 30 mins by 33P-ATP filter-binding assay
[10] = molecular target: Interleukin-1 receptor-associated kinase 4 (Homo sapiens) (UniProt Q9NWZ3); experiment: Inhibition of human IRAK4 (14 to 460 residues) assessed as remaining enzyme activity at 50 uM after 30 mins by 33P-ATP filter-binding assay
[11] = molecular target: Ribosomal protein S6 kinase beta-1 (Homo sapiens) (UniProt P23443); experiment: Inhibition of human S6K1 assessed as remaining enzyme activity at 50 uM after 30 mins by 33P-ATP filter-binding assay
[12] = molecular target: MAP/microtubule affinity-regulating kinase 4 (Homo sapiens) (UniProt Q96L34); experiment: Inhibition of human MARK4 (2 to 752 residues) assessed as remaining enzyme activity at 50 uM after 30 mins by 33P-ATP filter-binding assay
[13] = molecular target: Serine/threonine-protein kinase Nek6 (Homo sapiens) (UniProt Q9HC98); experiment: Inhibition of human NEK6 (8 to 313 residues) assessed as remaining enzyme activity at 50 uM after 30 mins by 33P-ATP filter-binding assay
[14] = Thermodynamic equilibrium solubility in PBS buffer at 120 ug/ml at pH 7.4 by HPLC analysis; type: physicochemical; conditions: read-out: Therm_solubility
[15] = molecular target: Mitogen-activated protein kinase 8 (Homo sapiens) (UniProt P45983); experiment: Inhibition of human JNK1 (1 to 384 residues) assessed as remaining enzyme activity at 50 uM after 30 mins by 33P-ATP filter-binding assay
[16] = tested on: HL-60; experiment: Induction of apoptosis in human HL60 cells assessed as apoptotic cells at 5 uM (reference value: 1 %); type: functional
[17] = molecular target: NUAK family SNF1-like kinase 1 (Homo sapiens) (UniProt O60285); experiment: Inhibition of human NUAK1 (2 to 660 residues) assessed as remaining enzyme activity at 50 uM after 30 mins by 33P-ATP filter-binding assay
[18] = molecular target: T1, CDK2/Cyclin A2 (Homo sapiens) (UniProt P24941+P20248); experiment: Inhibition of human Cdk2/cyclin A at 0.5 uM using Histone H1 substrate after 30 mins by 33P-ATP filter-binding assay; type: protein-complex assay
[19] = molecular target: Fibroblast growth factor receptor 1 (Homo sapiens) (UniProt P11362); experiment: Inhibition of human FGFR1 (400 to 820 residues) assessed as remaining enzyme activity at 50 uM after 30 mins by 33P-ATP filter-binding assay
[20] = molecular target: Serine/threonine-protein kinase SIK2 (Homo sapiens) (UniProt Q9H0K1); experiment: Inhibition of human SIK2 (2 to 962 residues) assessed as remaining enzyme activity at 50 uM after 30 mins by 33P-ATP filter-binding assay
[21] = Cytotoxicity against human MOLT4 cells assessed as cell growth inhibition after 48 hrs by MTT assay; type: functional; conditions: MOLT-4, 48 h
[22] = molecular target: Dual specificity tyrosine-phosphorylation-regulated kinase 1A (Homo sapiens) (UniProt Q13627); experiment: Inhibition of human DYRK1A (1 to 502 residues) assessed as remaining enzyme activity at 50 uM after 30 mins by 33P-ATP filter-binding assay
[23] = molecular target: SRSF protein kinase 1 (Homo sapiens) (UniProt Q96SB4); experiment: Inhibition of human SRPK1 (2 to 654 residues) assessed as remaining enzyme activity at 50 uM after 30 mins by 33P-ATP filter-binding assay
[24] = molecular target: Mitogen-activated protein kinase 1 (Homo sapiens) (UniProt P28482); experiment: Inhibition of human ERK2 (2 to 360 residues) assessed as remaining enzyme activity at 50 uM after 30 mins by 33P-ATP filter-binding assay
[25] = molecular target: Mitogen-activated protein kinase 10 (Homo sapiens) (UniProt P53779); experiment: Inhibition of human JNK3 (40 to 422 residues) assessed as remaining enzyme activity at 50 uM after 30 mins by 33P-ATP filter-binding assay
[26] = molecular target: Tyrosine-protein kinase SYK (Homo sapiens) (UniProt P43405); experiment: Inhibition of human SYK (1 to 635 residues) assessed as remaining enzyme activity at 50 uM after 30 mins by 33P-ATP filter-binding assay
[27] = tested on: MDA-MB-231; experiment: Cytotoxicity against human MDA-MB-231 cells assessed as cell growth inhibition after 48 hrs by MTT assay; type: functional; conditions: MDA-MB-231, 48 h
[28] = molecular target: T1, CDK2/Cyclin A2 (Homo sapiens); experiment: Inhibition of human Cdk2/cyclin A assessed as remaining enzyme activity at 50 uM after 30 mins by 33P-ATP filter-binding assay; type: protein-complex assay
[29] = molecular target: Serine/threonine-protein kinase pim-2 (Homo sapiens) (UniProt Q9P1W9); experiment: Inhibition of human PIM2 (2 to 334 residues) assessed as remaining enzyme activity at 50 uM after 30 mins by 33P-ATP filter-binding assay
[30] = molecular target: Tyrosine-protein kinase ZAP-70 (Homo sapiens) (UniProt P43403); experiment: Inhibition of human ZAP70 (1 to 619 residues) assessed as remaining enzyme activity at 50 uM after 30 mins by 33P-ATP filter-binding assay
[31] = molecular target: Glycogen synthase kinase-3 beta (Homo sapiens) (UniProt P49841); experiment: Inhibition of human GSK3beta (2 to 420 residues) assessed as remaining enzyme activity at 50 uM after 30 mins by 33P-ATP filter-binding assay
Chain of Glycogen synthase kinase-3 beta (Homo sapiens) (P49841 whole entry, looked up, the tested form may be a part): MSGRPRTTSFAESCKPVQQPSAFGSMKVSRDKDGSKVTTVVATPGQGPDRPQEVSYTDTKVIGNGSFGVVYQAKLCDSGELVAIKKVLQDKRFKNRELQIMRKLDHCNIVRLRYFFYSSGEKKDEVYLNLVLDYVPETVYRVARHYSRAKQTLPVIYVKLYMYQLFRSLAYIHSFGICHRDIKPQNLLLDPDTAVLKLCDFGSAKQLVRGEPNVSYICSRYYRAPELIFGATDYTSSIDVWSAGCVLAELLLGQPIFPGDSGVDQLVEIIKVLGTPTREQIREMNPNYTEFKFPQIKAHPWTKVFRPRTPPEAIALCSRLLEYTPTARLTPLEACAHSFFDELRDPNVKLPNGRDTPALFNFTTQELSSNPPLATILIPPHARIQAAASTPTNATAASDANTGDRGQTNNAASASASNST

Chain of Mitogen-activated protein kinase 8 (Homo sapiens) (P45983 whole entry, the tested form may be a part): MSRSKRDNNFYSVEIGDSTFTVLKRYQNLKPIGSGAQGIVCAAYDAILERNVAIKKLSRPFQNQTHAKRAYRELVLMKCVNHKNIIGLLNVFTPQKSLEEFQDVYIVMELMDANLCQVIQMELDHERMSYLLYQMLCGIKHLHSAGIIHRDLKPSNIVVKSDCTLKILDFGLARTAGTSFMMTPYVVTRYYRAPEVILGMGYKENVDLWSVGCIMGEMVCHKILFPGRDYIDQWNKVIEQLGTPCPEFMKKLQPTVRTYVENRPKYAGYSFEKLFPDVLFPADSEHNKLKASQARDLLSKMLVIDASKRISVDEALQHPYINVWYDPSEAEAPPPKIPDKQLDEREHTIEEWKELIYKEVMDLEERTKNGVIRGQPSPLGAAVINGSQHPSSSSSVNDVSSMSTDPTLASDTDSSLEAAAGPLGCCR
Chain of Ribosomal protein S6 kinase beta-1 (Homo sapiens) (P23443 whole entry, looked up, the tested form may be a part): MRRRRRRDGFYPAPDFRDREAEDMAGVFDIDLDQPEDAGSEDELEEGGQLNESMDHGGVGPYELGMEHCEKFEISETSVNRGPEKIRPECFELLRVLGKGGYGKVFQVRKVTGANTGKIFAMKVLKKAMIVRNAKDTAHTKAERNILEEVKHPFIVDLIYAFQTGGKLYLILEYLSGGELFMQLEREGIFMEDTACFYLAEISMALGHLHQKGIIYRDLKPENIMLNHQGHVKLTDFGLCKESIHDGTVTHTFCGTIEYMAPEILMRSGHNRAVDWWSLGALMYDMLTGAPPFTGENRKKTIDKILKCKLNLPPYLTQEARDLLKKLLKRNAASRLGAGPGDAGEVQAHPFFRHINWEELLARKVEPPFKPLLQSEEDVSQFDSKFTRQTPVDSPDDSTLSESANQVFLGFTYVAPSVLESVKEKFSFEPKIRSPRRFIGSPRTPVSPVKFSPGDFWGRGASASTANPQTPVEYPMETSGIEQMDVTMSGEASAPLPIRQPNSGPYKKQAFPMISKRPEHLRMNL
Chain of Serine/threonine-protein kinase Nek6 (Homo sapiens) (Q9HC98 whole entry, the tested form may be a part): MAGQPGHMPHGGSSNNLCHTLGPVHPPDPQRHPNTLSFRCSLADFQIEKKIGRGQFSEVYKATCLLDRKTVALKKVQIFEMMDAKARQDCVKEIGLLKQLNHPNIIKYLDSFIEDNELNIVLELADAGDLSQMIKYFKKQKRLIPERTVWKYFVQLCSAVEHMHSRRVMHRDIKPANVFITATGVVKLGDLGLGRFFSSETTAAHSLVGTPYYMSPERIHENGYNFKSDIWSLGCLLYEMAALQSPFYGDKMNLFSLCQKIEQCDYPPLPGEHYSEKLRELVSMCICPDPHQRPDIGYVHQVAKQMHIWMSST
Chain of Fibroblast growth factor receptor 1 (Homo sapiens) (P11362 22-822 limits assumed): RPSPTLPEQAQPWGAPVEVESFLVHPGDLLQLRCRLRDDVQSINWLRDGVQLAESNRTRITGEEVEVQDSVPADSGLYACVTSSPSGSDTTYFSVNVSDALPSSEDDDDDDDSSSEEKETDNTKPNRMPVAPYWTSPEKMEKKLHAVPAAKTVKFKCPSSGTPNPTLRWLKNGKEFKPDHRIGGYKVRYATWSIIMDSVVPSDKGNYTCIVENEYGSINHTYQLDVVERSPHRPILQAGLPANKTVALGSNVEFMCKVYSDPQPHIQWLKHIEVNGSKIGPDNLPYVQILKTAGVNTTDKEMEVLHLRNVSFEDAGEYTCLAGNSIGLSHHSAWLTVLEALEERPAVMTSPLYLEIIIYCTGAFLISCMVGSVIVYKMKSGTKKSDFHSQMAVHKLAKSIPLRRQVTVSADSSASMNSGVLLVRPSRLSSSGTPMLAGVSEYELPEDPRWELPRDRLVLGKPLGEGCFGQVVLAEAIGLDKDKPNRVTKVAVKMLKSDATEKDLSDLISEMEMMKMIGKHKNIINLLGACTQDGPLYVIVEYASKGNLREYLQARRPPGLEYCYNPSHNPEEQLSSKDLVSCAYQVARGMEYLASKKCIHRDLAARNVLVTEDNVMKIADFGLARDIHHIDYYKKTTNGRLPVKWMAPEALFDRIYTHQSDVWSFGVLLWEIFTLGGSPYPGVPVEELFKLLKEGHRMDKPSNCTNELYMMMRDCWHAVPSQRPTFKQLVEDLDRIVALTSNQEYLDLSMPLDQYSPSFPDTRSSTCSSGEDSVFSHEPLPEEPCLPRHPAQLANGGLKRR
Chain of Serine/threonine-protein kinase pim-2 (Homo sapiens) (Q9P1W9 whole entry, looked up, the tested form may be a part): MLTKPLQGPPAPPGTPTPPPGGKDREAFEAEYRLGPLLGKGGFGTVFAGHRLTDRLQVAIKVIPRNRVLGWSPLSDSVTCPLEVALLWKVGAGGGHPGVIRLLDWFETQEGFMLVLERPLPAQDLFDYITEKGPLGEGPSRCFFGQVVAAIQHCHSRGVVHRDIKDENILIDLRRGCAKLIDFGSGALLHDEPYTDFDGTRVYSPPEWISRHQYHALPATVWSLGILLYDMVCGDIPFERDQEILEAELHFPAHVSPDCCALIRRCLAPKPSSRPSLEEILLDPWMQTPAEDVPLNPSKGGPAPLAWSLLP
Chain of Serine/threonine-protein kinase SIK2 (Homo sapiens) (Q9H0K1 whole entry, looked up, the tested form may be a part): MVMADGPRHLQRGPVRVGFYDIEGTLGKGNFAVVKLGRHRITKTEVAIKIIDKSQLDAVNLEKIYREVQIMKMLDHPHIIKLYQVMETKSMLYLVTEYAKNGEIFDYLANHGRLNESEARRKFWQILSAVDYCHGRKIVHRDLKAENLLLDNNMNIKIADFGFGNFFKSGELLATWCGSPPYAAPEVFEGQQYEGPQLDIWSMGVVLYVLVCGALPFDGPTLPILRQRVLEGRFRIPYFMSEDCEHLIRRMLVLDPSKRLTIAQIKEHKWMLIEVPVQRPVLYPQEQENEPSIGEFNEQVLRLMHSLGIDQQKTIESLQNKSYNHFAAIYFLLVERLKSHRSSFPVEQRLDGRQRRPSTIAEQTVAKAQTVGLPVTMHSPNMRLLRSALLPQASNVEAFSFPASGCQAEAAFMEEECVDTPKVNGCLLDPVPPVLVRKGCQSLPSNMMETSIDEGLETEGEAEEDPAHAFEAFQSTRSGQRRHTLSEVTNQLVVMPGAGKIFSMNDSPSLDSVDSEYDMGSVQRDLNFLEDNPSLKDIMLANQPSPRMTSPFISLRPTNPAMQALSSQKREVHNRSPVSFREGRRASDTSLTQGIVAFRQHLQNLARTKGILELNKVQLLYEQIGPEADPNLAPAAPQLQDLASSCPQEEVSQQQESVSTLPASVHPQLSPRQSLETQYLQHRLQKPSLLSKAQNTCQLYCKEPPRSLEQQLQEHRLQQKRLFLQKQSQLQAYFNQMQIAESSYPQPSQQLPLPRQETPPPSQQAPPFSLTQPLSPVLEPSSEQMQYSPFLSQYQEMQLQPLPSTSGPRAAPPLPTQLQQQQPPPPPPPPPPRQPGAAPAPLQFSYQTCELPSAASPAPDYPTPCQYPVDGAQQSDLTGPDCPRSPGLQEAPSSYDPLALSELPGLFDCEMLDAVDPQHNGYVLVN
Chain of Homeodomain-interacting protein kinase 1 (Homo sapiens) (Q86Z02 whole entry, looked up, the tested form may be a part): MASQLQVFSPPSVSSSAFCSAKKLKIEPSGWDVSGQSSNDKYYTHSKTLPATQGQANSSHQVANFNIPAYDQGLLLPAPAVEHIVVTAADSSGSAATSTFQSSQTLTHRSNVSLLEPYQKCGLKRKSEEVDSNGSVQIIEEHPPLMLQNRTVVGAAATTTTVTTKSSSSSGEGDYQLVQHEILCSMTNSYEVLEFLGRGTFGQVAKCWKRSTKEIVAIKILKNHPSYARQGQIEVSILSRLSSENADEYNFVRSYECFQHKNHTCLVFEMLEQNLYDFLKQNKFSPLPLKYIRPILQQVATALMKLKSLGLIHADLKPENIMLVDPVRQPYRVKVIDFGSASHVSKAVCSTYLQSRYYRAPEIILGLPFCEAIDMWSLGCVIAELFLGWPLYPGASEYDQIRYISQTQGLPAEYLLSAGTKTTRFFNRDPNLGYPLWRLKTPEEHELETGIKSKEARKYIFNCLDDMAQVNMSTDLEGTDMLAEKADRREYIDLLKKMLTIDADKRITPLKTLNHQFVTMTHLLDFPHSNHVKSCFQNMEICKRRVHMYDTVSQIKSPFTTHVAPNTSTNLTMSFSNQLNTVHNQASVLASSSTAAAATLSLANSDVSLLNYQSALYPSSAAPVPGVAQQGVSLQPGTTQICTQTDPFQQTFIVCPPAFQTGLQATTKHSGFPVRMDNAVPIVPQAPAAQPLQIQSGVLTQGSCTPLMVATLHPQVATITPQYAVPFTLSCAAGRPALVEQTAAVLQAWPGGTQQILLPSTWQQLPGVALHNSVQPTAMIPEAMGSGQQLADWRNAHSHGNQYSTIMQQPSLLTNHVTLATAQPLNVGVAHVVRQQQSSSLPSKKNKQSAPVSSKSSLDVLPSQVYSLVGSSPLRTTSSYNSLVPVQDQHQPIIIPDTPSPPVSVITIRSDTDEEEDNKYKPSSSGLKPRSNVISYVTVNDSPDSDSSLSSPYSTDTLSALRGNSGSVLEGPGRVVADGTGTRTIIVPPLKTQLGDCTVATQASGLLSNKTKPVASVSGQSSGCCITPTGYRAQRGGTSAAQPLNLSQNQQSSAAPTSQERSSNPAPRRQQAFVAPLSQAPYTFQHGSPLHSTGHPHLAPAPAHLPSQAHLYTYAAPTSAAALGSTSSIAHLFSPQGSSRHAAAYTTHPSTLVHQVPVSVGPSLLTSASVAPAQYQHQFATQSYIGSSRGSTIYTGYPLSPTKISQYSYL

solubility thermodynamic [1]: 10.2 mg/mL (≈ 33.6 mM)
Activity [2]: 75%
Activity [3]: 77%
IC50 [4]: 7.3 µM
Activity [5]: 53%
Activity [6]: 96%
solubility thermodynamic [7]: 18.9 mg/mL (≈ 61.9 mM)
Activity [8]: 89%
Activity [9]: 39%
Activity [10]: 75%
Activity [11]: 79%
Activity [12]: 92%
Activity [13]: 84%
solubility thermodynamic [14]: 16.9 mg/mL (≈ 55.5 mM)
Activity [15]: 96%
Activity [17]: 52%
inhibition [18]: 10%
Activity [19]: 66%
Activity [20]: 19%
Activity [22]: 27%
Activity [23]: 40%
Activity [24]: 90%
Activity [25]: 87%
Activity [26]: 109%
Activity [28]: 16%
Activity [29]: 67%
Activity [30]: 103%
Activity [31]: 66%
SMILES: Cc1cc(=O)c2c(O)cc(O)c([C@H]3CCN(C)C[C@H]3O)c2o1 [ROHITUKINE]
Activity [16]: 4%
GI50 [21]: 12 µM
GI50 [27]: 13 µM
